Target: T1, KRas G12C (Homo sapiens, UniProt P01116, G12C)
T1 construct: NCI-H358 cells (ATCC CRL-5807) express KRas G12C; host or cells: NCI-H358
Experiment: Inhibition of KRas G12C in NCI-H358 cells measured by phosphorylated ERK (Phospho-ERK)
Format: cell-based
Conditions: pERK(Thr202/Tyr204) signal normalized with GAPDH, percent of DMSO control, 3 hours compound treatment
Description: The cellular inhibition of KRAs G12C by exemplary compounds of the present invention was determined by measuring the amount of a downstream marker of KRas activity, phosphorylated ERK (“Phospho-ERK”).
NCI-H358 cells (ATCC CRL-5807) express KRas G12C and were grown in RPMI medium supplemented with 10% fetal bovine serum, penicillin/streptomycin and 10 mM HEPES. Cells were plated in poly-D-Lysine coated 96-well plates at a concentration of 50,000 cells/well and allowed to attach for 8-12 hours. Diluted compounds were then added at a final concentration of 0.5% DMSO. After 3 hours, the medium was removed, 150 μL of 4% formaldehyde was added and the plates were incubated for 20 minutes. The plates were washed with PBS, and permeabilized using 150 μL of ice cold 100% methanol for 10 minutes. Non-specific antibody binding to the plates was blocked using 100 μL Licor Blocking Buffer (Li-Cor Biotechnology, Lincoln Nebr.) for 1 hour at room temperature. Positive control samples and samples lacking cells were parallel processed with test samples as standards.
The amount Phospho-ERK was determined using an antibody specific for the phosphorylated form of ERK and compared to the amount of GAPDH. Primary antibodies used for detection were added as follows: Phospho-ERK (Cell Signaling cs9101) diluted 1:500 and GAPDH (Millipore MAB374) diluted 1:5000 in Licor block+0.05% Tween 20. The plates were incubated for 2 hours at room temperature. The plates were washed with PBS+0.05% Tween 20.
Secondary antibodies used to visualize primary antibodies were added as follows: Anti-rabbit-680 diluted 1:1000 and Anti-mouse-800 diluted 1:1000 in Licor Block+0.05% Tween 20 and incubated for 1 hour at room temperature. The plates were washed with PBS+0.05% Tween 20. A 100 μL aliquot of PBS was added to each well and the plates were read on a LICOR AERIUS plate reader.
The pERK(Thr202/Tyr204) signal was normalized with the GAPDH signal and percent of DMSO control values were calculated. IC50 values were generated using a 4 parameter fit of the dose response curve. Key: “A”≤500 nM; “B”>500 nM and ND=not determined.

T1 sequence (P01116 1-188 isoform P01116-2 G12C): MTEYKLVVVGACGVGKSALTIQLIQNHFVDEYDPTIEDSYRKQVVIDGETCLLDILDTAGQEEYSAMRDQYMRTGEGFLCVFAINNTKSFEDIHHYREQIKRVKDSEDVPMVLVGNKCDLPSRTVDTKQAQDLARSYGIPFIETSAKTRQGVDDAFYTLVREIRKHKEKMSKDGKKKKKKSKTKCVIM

IC50	Compound
> 500 nM	C=C(F)C(=O)N1CCN(c2nc(OC[C@@H]3CCCN3C)nc3c2CCCN(c2c(C)ccc4[nH]ncc24)C3)C[C@@H]1CC#N [Example 20, 2-[(2S)-1-(2-fluoroprop-2-enoyl)-4-[8-(5-methyl-1H-indazol-4-yl)-2-[[(2S)-1-methylpyrrolidin-2-yl]methoxy]-5,6,7,9-tetrahydropyrimido[4,5-c]azepin-4-yl]piperazin-2-yl]acetonitrile]
> 500 nM	C=CC(=O)N1CCN(c2nc(OC[C@@H]3CCCN3C)nc3c2CCCN(c2cccc4cccc(C(F)(F)F)c24)C3)C[C@@H]1CC#N [Example 21, 2-((S)-1-acryloyl-4-(2-(((S)-1-methylpyrrolidin-2-yl)methoxy)-8-(8-(trifluoromethyl)naphthalen-1-yl)-6,7,8,9-tetrahydro-5H-pyrimido[4,5-c]azepin-4-yl)piperazin-2-yl)acetonitrile]
> 500 nM	C=C(F)C(=O)N1CCN(c2ncnc3c2CCCN(c2cccc4cccc(C)c24)C3)C[C@@H]1CC#N [Example 23, 2-[(2S)-1-(2-fluoroprop-2-enoyl)-4-[8-(8-methyl-1-naphthyl)-5,6,7,9-tetrahydropyrimido[4,5-c]azepin-4-yl]piperazin-2-yl]acetonitrile]

The remaining lines, values behind:

Compound	IC50
C=C(F)C(=O)N1CCN(c2nc(OC[C@@H]3CCCN3C)nc3c2CCCN(c2cccc4ccccc24)C3)C[C@@H]1CC#N [Example 22, 2-((S)-1-(2-fluoroacryloyl)-4-(2-(((S)-1-methylpyrrolidin-2-yl)methoxy)-8-(naphthalen-1-yl)-6,7,8,9-tetrahydro-5H-pyrimido[4,5-c]azepin-4-yl)piperazin-2-yl)acetonitrile]	> 500 nM
C=CC(=O)N1CCN(c2ncnc3c2CCCN(c2cccc4cccc(C)c24)C3)C[C@@H]1CC#N [Example 25, 2-[(2S)-4-[8-(8-methyl-1-naphthyl)-5,6,7,9-tetrahydropyrimido[4,5-c]azepin-4-yl]-1-prop-2-enoyl-piperazin-2-yl]acetonitrile]	> 500 nM
C=C(F)C(=O)N1CCN(c2nc(OC[C@@H]3CCCN3C)nc3c2CCCN(c2cccc4[nH]ncc24)C3)C[C@@H]1CC#N [Example 26, 2-((S)-4-(8-(1H-indazol-4-yl)-2-(((S)-1-methylpyrrolidin-2-yl)methoxy)-6,7,8,9-tetrahydro-5H-pyrimido[4,5-c]azepin-4-yl)-1-(2-fluoroacryloyl)piperazin-2-yl)acetonitrile]	> 500 nM

— patent US20210230170A1, “KRAS G12C INHIBITORS” (Mirati Therapeutics, Inc., priority 2018, published 2021)
